Results published in patent US8030499B2, “1,3-dihydro-2H-indole-2-one compound and pyrrolidine-2-one compound fused with aromatic heterocycle” (Taisho Pharmaceutical Co., Ltd., priority 2005, dated 2011).

Columns and labels:
human V2 receptor = biological target: T1, human V2 receptor (Homo sapiens, UniProt P30518); test: V2 receptor binding assay ([3H](Arg8)-vasopressin, crude membranes of 293FT cells); conditions: receptor binding test, human V2, 293FT cell membranes
T1 construct: expressed in transfected cells; host or cells: 293FT cells
T1 sequence (P30518 whole entry): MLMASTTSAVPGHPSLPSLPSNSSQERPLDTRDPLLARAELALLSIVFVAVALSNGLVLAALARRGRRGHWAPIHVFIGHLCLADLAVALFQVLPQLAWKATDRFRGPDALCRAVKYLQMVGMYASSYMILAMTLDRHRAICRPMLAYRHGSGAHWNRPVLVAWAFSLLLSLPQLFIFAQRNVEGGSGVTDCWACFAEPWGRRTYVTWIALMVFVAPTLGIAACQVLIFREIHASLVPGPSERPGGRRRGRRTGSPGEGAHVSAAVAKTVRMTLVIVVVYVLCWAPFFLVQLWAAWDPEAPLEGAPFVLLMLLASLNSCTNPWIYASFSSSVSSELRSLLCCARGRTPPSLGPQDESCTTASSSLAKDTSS
Description: (§1) A summary of the methods is given below.
(§2) Each obtained homogenate was centrifuged for 20 minutes at 50,000×g and 4° C., the sediment was resuspended in a 50 mmol/L Tris hydrochloric acid buffer solution (pH7.4, containing 10 mmol/L magnesium chloride and 0.1% bovine serum albumin), which served as a crude membrane preparation. This crude membrane preparation was added with [^3H] (Arg^8) vasopressin (final concentration: 0.1 nmol/L to 0.4 nmol/L), and each test drug (final concentration: 0.1 nmol/L to lμmol/L or 0.01 nmol/L to 0.1 μmol/L) to 22° C. for 90 minutes. After the end of the reaction, the reaction solution was filtrated using a GF/C glass fiber filter, which had been presoaked in 0.3% polyethyleneimine for two hours. After the GF/C glass fiber filter was dried sufficiently, scintillator was added, and the radioactivity on the filter was measured using a liquid scintillation counter. Binding of [^3H] (Arg^8)-vasopressin in the presence of (Arg^8)-vasopressin, in the amounts of 0.1 μmol/L in the V1b receptor binding assay and 5 μmol/L in the V1a and V2 receptor binding assay, were taken as non-specific binding, and the value obtained by subtracting non-specific binding from the total binding in the absence (Arg^8)-vasopressin served as specific binding.

human V1b receptor = biological target: T2, human V1b receptor (Homo sapiens, UniProt P47901); test: V1b receptor binding assay ([3H](Arg8)-vasopressin, crude membranes of CHO cells); conditions: for IC50: receptor binding test, human V1b, CHO cell membranes; for inhibition at 0.1 µM: 0.1 μmol/L test drug, V1b receptor binding assay, read-out: Rate of inhibition (V1b: % of inhibition)
T2 construct: expressed in transfected cells; host or cells: CHO cells
T2 sequence (P47901 1-424): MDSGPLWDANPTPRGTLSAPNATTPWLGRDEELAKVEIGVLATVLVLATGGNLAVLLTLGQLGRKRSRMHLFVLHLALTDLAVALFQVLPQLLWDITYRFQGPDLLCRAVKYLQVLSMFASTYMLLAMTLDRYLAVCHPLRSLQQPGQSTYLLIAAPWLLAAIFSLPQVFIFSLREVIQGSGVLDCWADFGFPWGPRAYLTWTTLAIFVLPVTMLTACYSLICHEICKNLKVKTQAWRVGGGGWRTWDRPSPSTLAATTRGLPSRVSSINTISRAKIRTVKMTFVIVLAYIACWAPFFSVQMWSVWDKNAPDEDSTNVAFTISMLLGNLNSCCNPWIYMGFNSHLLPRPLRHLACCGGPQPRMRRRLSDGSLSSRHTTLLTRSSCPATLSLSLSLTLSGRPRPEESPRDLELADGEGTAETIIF
Description: as §1, §2
In addition, regarding the V1b receptor binding assay, the value obtained by, subtracting the amount of binding in the presence of 0.1 μmol/L test drug from the total amount of binding, divided by the amount of specific binding, served as the rate of inhibition (% of inhibition) of the test drug at the concentration tested.

human V1a receptor = biological target: T3, human V1a receptor (Homo sapiens, UniProt P37288); test: V1a receptor binding assay ([3H](Arg8)-vasopressin, crude membranes of 293FT cells); conditions: receptor binding test, 293FT cell membranes
T3 construct: expressed in transfected cells; host or cells: 293FT cells
T3 sequence (P37288 whole entry): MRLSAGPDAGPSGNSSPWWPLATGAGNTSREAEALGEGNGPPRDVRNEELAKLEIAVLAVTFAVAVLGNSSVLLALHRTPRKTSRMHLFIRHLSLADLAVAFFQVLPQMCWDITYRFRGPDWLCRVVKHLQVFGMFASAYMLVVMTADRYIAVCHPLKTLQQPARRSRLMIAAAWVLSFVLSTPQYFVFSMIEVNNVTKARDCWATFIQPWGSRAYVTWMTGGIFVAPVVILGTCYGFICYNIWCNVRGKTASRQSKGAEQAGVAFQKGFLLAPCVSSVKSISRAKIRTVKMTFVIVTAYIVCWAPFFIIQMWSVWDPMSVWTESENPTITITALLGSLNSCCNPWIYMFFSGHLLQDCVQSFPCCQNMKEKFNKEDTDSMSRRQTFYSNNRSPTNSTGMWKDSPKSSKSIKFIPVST
Description: as §1, §2

In the case of `COc1ccc(S(=O)(=O)N2C(=O)C(c3cc(CN(C)C)ccc3OC)(N3C[C@H](O)C[C@H]3C(=O)N(C)C)c3cc(Cl)ccc32)c(OC(F)(F)F)c1` (single isomer, unassigned) [Example 195 A], the IC50 (human V2 receptor) is reported as greater than 10000 nM, the IC50 (human V1b receptor) is reported as 0.56 nM and the IC50 (human V1a receptor) is reported as 573 nM.
Work on `COc1ccc(S(=O)(=O)N2C(=O)C(c3ccccc3OC)(N3CCCC[C@H]3C(=O)N(C)C)c3cc(Cl)ccc32)c(OC(F)(F)F)c1` (single isomer, unassigned) [Example 31] yielded an IC50 (human V2 receptor) greater than 10000 nM, an IC50 (human V1b receptor) of 5.2 nM and an IC50 (human V1a receptor) of 953 nM.
For `COc1ccc(S(=O)(=O)N2C(=O)C(c3cc(CCO)ccc3OC)(N3C[C@H](O)C[C@H]3C(=O)N(C)C)c3cc(Cl)ccc32)c(OC(F)(F)F)c1` (single isomer, unassigned) [Example 217], the IC50 (human V2 receptor) was 3100 nM, the IC50 (human V1b receptor) was 0.96 nM and the IC50 (human V1a receptor) was 404 nM.
For `COc1ccc(S(=O)(=O)N2C(=O)C(c3ccccc3OC)(N3CCOC[C@H]3C(=O)N(C)C)c3cc(Cl)ccc32)c(OC(F)(F)F)c1` (single isomer, unassigned) [Example 41], the IC50 (human V2 receptor) was greater than 10000 nM, the IC50 (human V1b receptor) was 7.1 nM and the IC50 (human V1a receptor) was 3760 nM.
In the case of `COc1ccc(S(=O)(=O)N2C(=O)C(c3cc(CCN4CCCCC4)ccc3OC)(N3C[C@H](O)C[C@H]3C(=O)N(C)C)c3cc(Cl)ccc32)c(OC(F)(F)F)c1` (single isomer, unassigned) [Example 225], the IC50 (human V2 receptor) is reported as 5050 nM, the IC50 (human V1b receptor) is reported as 0.32 nM and the IC50 (human V1a receptor) is reported as 101 nM.
`COc1ccc(S(=O)(=O)N2C(=O)C(c3cc(C)ccc3OC)(N3C[C@H](OCC(N)=O)C[C@H]3C(=O)N(C)C)c3cc(Cl)ccc32)c(OC(F)(F)F)c1` (single isomer, unassigned) [Example 147] showed an IC50 (human V2 receptor) of 5650 nM, an IC50 (human V1b receptor) of 1.2 nM and an IC50 (human V1a receptor) of 1110 nM.
`COc1ccc(S(=O)(=O)N2C(=O)C(c3cc(C)ccc3OC)(N3C[C@H](O)C[C@H]3C(=O)N(C)C)c3cc(Cl)cnc32)c(OC(F)(F)F)c1` (single isomer, unassigned) [Example 118] gave an inhibition at 0.1 µM (human V1b receptor) of 67%.
Compound `COc1ccc(S(=O)(=O)N2C(=O)C(c3cc(C)cnc3OC)(N3C[C@H](O)C[C@H]3C(=O)N(C)C)c3cc(Cl)ccc32)c(OC)c1OC` (stereo partly drawn) [Example 173, (4R)-1-{5-chloro-3-(2-methoxy-5-methylpyridin-3-yl)-2-oxo-1-[(2,3,4-trimethoxyphenyl)sulfonyl]-2,3-dihydro-1H-indol-3-yl}-4-hydroxy-N,N-dimethyl-L-prolinamide] has an inhibition at 0.1 µM (human V1b receptor) of 104%.
In the case of `COc1ccc(S(=O)(=O)N2C(=O)C(c3cc(C#N)ccc3OC)(N3C[C@H](O)C[C@H]3C(=O)N(C)C)c3cc(Cl)ccc32)c(OC(F)(F)F)c1` (single isomer, unassigned) [Example 238], the inhibition at 0.1 µM (human V1b receptor) is reported as 89%.
`COc1ccc(S(=O)(=O)N2C(=O)C(c3cc(CN4CCCC4)ccc3OC)(N3C[C@H](O)C[C@H]3C(=O)N(C)C)c3cc(Cl)ccc32)c(OC(F)(F)F)c1` (single isomer, unassigned) [Example 199] showed an inhibition at 0.1 µM (human V1b receptor) of 98%.
`COc1ccc(C2(N3CCCC[C@H]3C(=O)N(C)C)C(=O)N(S(=O)(=O)c3ccc(OC)cc3OC(F)(F)F)c3ccc(C)cc32)cc1` (single isomer, unassigned) [Example 96] showed an inhibition at 0.1 µM (human V1b receptor) of 73%.
In the case of `COc1ccc(S(=O)(=O)N2C(=O)C(c3cccc4c3OCC4)(N3CCCC[C@H]3C(=O)N(C)C)c3cc(Cl)ccc32)c(OC(F)(F)F)c1` (stereo partly drawn) [Example 90, (2S)-1-(5-chloro-3-(2,3-dihydro-1-benzofuran-7-yl)-1-{[4-methoxy-2-(trifluoromethoxy)phenyl]sulfonyl}-2-oxo-2,3-dihydro-1H-indol-3-yl)-N,N-dimethylpiperidine-2-carboxamide], the inhibition at 0.1 µM (human V1b receptor) is reported as 97%.
Work on `COc1ccc(S(=O)(=O)N2C(=O)C(c3cc(CO)ccc3OC)(N3C[C@H](O)C[C@H]3C(=O)N(C)C)c3cc(Cl)ccc32)c(OC(F)(F)F)c1` (single isomer, unassigned) [Example 203] yielded an inhibition at 0.1 µM (human V1b receptor) of 87%.
With `COc1ccc(S(=O)(=O)N2C(=O)C(c3cc(C)ccc3OC)(N3C[C@H](O)C[C@H]3C(=O)N(C)C)c3cc(Br)cnc32)c(OC)c1` (single isomer, unassigned) [Example 121] the inhibition at 0.1 µM (human V1b receptor) was 47%.
`COc1ccc(S(=O)(=O)N2C(=O)C(c3cc(C(C)C)ccc3OC)(N3C[C@H](O)C[C@H]3C(=O)N(C)C)c3cc(Cl)ccc32)c(OC(F)(F)F)c1` (single isomer, unassigned) [Example 230] was tested, and the inhibition at 0.1 µM (human V1b receptor) was 101%.
For `COC(=O)[C@@H]1C[C@@H](O)CN1C1(c2cc(C)ccc2OC)C(=O)N(S(=O)(=O)c2ccc(OC)cc2OC(F)(F)F)c2ccc(Cl)cc21` (single isomer, unassigned) [Example 135], the inhibition at 0.1 µM (human V1b receptor) was 92%.
With `COc1ccc(S(=O)(=O)N2C(=O)C(c3cc(OC)ccc3OC)(N3CCCC[C@H]3C(=O)N(C)C)c3cc(Cl)ccc32)c(OC(F)(F)F)c1` (single isomer, unassigned) [Example 117] the inhibition at 0.1 µM (human V1b receptor) was 95%.
Compound `COc1ccc(S(=O)(=O)N2C(=O)C(c3cccc4c3OCO4)(N3C[C@H](O)C[C@H]3C(=O)N(C)C)c3cc(C)ccc32)c(OC(F)(F)F)c1` (single isomer, unassigned) [Example 107] has an inhibition at 0.1 µM (human V1b receptor) of 102%.
`COc1ccc(S(=O)(=O)N2C(=O)C(N[C@@H](Cc3ccc(O)cc3)C(=O)N(C)C)(c3ccccc3OC)c3cc(Cl)ccc32)c(OC(F)(F)F)c1` (single isomer, unassigned) [Example 86] was tested, and the inhibition at 0.1 µM (human V1b receptor) was 86%.
For `COc1ccc(S(=O)(=O)N2C(=O)C(c3ccccc3OC)(N3C[C@H](F)C[C@H]3C(=O)N(C)C)c3cc(Cl)ccc32)c(OC(F)(F)F)c1` (single isomer, unassigned) [Example 7], the inhibition at 0.1 µM (human V1b receptor) was 96%.
`COc1ccc(S(=O)(=O)N2C(=O)C(c3cc(C)ccc3OC)(N3C[C@H](OCC(=O)O)C[C@H]3C(=O)N(C)C)c3cc(Cl)ccc32)c(OC(F)(F)F)c1` (stereo partly drawn) [Example 148, ({(3R,5S)-1-(5-chloro-3-(2-methoxy-5-methylphenyl)-1-{[4-methoxy-2-(trifluoromethoxy)phenyl]sulfonyl}-2-oxo-2,3-dihydro-1H-indol-3-yl)-5-[(dimethylamino)carbonyl]pyrrolidin-3-yl}oxy)acetic acid] gave an inhibition at 0.1 µM (human V1b receptor) of 85%.
For `COC(=O)[C@@H]1C[C@@H](O)CN1C1(c2ccccc2OC)C(=O)N(S(=O)(=O)c2ccc(OC)cc2OC(F)(F)F)c2ccc(Cl)cc21` (single isomer, unassigned) [Example 4], the inhibition at 0.1 µM (human V1b receptor) was 102%.
Compound `COc1ccc(S(=O)(=O)N2C(=O)C(c3cc(OC)ccc3OC)(N3C[C@H](O)C[C@H]3C(=O)N(C)C)c3cc(Cl)ccc32)c(OC(F)(F)F)c1` (single isomer, unassigned) [Example 102] has an inhibition at 0.1 µM (human V1b receptor) of 102%.
`COc1ccc(S(=O)(=O)N2C(=O)C(c3cc(C)ccc3OC)(N3C[C@H](OC(C)=O)C[C@H]3C(=O)N(C)C)c3cc(Cl)ccc32)c(OC(F)(F)F)c1` (single isomer, unassigned) [Example 137] gave an inhibition at 0.1 µM (human V1b receptor) of 96%.
Compound `COc1ccc(S(=O)(=O)N2C(=O)C(c3cc(CCN(C)C)ccc3OC)(N3C[C@H](O)C[C@H]3C(=O)N(C)C)c3cc(Cl)ccc32)c(OC(F)(F)F)c1` (stereo partly drawn) [Example 221, (4R)-1-(5-chloro-3-{5-[2-(dimethylamino)ethyl]-2-methoxyphenyl}-1-{[4-methoxy-2-(trifluoromethoxy)phenyl]sulfonyl}-2-oxo-2,3-dihydro-1H-indol-3-yl)-4-hydroxy-N,N-dimethyl-L-prolinamide] has an inhibition at 0.1 µM (human V1b receptor) of 102%.
`COc1ccc(S(=O)(=O)N2C(=O)C(c3cc(C)ccc3OC)(N3C[C@H](O)C[C@H]3C(=O)N(C)C)c3cc(Cl)ccc32)c(OCC(F)(F)F)c1` (single isomer, unassigned) [Example 171] was tested, and the inhibition at 0.1 µM (human V1b receptor) was 95%.
